This note sets out measurements from paper PMC9237828, “Chemically Tuning Resveratrol for the Effective Killing of Gram-Positive Pathogens” (Journal of Natural Products, 2022).

Converted amounts (≈) assume the structure as drawn. Where two headings read alike, the source gives them in different places. A value given as a limit tells only on which side of the number the result lay.

One experiment has as its system B. cereus ATCC10987. The experiment is described as follows: microbe, parasite or virus in culture. Type of experiment: cell-based, Bacillus cereus. As to conditions: for MIC: Bacillus cereus, ATCC10987, 20 h, read-out: Minimal Inhibition Concentration (MIC) B. cereus ATCC10987.
Another experiment deals with E. faecalis V583. Description: microbe, parasite or virus in culture. Format: cell-based, Enterococcus faecalis. To be noted: for MIC: Enterococcus faecalis, V583, 20 h, read-out: Minimal Inhibition Concentration (MIC) E. faecalis V583.
A further experiment deals with E. faecium LMG16003. Description: microbe, parasite or virus in culture. Format: cell-based. To be noted: for MIC: Enterococcus faecium, LMG16003, 20 h, read-out: Minimal Inhibition Concentration (MIC) E. faecium LMG16003.
A further experiment deals with S.aureus LMG8224. Description: microbe, parasite or virus in culture. Format: cell-based, Staphylococcus aureus. To be noted: for MIC: Staphylococcus aureus, LMG8224, 20 h, read-out: Minimal Inhibition Concentration (MIC) S.aureus LMG8224.
The test system of a further experiment is C. difficile CECT531. Description: microbe, parasite or virus in culture. Format: cell-based, Clostridioides difficile. As to conditions: for MIC: Clostridioides difficile, CECT531, 24 h, read-out: Minimal Inhibition Concentration (MIC) C. difficile CECT531.
The next experiment deals with C. perfringens CECT376. Description: microbe, parasite or virus in culture. Type of experiment: cell-based. As to conditions: for MIC: Clostridium perfringens, CECT376, 24 h, read-out: Minimal Inhibition Concentration (MIC) C. perfringens CECT376.
In another experiment the test system is B. cereus ATCC14579. The experiment is described as follows: microbe, parasite or virus in culture. Type of experiment: cell-based, Bacillus cereus. To be noted: for MIC: Bacillus cereus, ATCC14579, 20 h, read-out: Minimal Inhibition Concentration (MIC) B. cereus ATCC14579.
The next experiment concerns E. faecalis LMG08222. The experiment is described as follows: microbe, parasite or virus in culture. As to conditions: for MIC: Enterococcus faecalis, LMG08222, 20 h, read-out: Minimal Inhibition Concentration (MIC) E. faecalis LMG08222. Type of experiment: cell-based, Enterococcus faecalis.
The next experiment concerns E. faecalis LMG16216. Description: microbe, parasite or virus in culture. Type of experiment: cell-based, Enterococcus faecalis. As to conditions: for MIC: Enterococcus faecalis, LMG16216, 20 h, read-out: Minimal Inhibition Concentration (MIC) E. faecalis LMG16216.
The test system of a further experiment is E. faecium LMG11423. The experiment is described as follows: microbe, parasite or virus in culture. Type of experiment: cell-based. To be noted: for MIC: Enterococcus faecium, LMG11423, 20 h, read-out: Minimal Inhibition Concentration (MIC) E. faecium LMG11423.
In the next experiment the test system is S.aureus LMG10147. Description: microbe, parasite or virus in culture. Type of experiment: cell-based, Staphylococcus aureus. As to conditions: for MIC: Staphylococcus aureus, LMG10147, 20 h, read-out: Minimal Inhibition Concentration (MIC) S.aureus LMG10147.
In the next experiment the test system is S.aureus LMG15975. The experiment is described as follows: microbe, parasite or virus in culture. Format: cell-based, Staphylococcus aureus. As to conditions: for MIC: Staphylococcus aureus, LMG15975, 20 h, read-out: Minimal Inhibition Concentration (MIC) S.aureus LMG15975.
In another experiment the test system is C. beijerinckii B504. Description: MIC test, anaerobes. Type of experiment: cell-based. The procedure:
(§1) The resveratrol derivatives were serially diluted in cMHB (BD Difco) in 96-well microplates. Plates were then inoculated with the indicator bacteria at a final concentration of 5 × 10^5 CFU/mL and incubated at 37 °C for 20 h. In the case of the anaerobic bacteria (Clostridium and Clostridioides), the test was performed following the recommendation of CLSI for anaerobes[77] but using RCM medium instead of cMHB. The cultures were cultivated inside an anaerobic chamber at 37 °C for 24 h. All the tests were performed in triplicate.

In another experiment the test system is C. ihumii AP5. Description: MIC test, anaerobes. Format: cell-based. The procedure: as §1
The test system of another experiment is C. botulinum CECT551. The experiment is described as follows: microbe, parasite or virus in culture. As to conditions: for MIC: Clostridium botulinum, CECT551, 24 h, read-out: Minimal Inhibition Concentration (MIC) C. botulinum CECT551. Type of experiment: cell-based.
The subject of the next experiment is C. tetani CECT4629. Description: microbe, parasite or virus in culture. Type of experiment: cell-based.
Experiment [1] concerns panel of aerobic and anaerobic Gram-positive bacteria. The experiment is described as follows: organism not typed. Type of experiment: cell-based.
For the next experiment, the system named is E. coli LMG8224. The experiment is described as follows: Outer membrane permeabilization test (MIC with or without L-11 peptide). As to conditions: for MIC: Escherichia coli, LMG8224, read-out: MIC (μM) L-11 + 0 μM; for MIC (μM) L-11 + 4 μM: presence of 4 μM L-11 outer-membrane-perturbing peptide.
Where [2] appears, read: Table 1; 128 to 2 μM, RCM medium, anaerobic, 24 h.
[3] abbreviates: Table 1, 128 to 2 μM, RCM medium, anaerobic, 24 h.

With `CN[C@H](CC(C)C)C(=O)N[C@H]1C(=O)N[C@@H](CC(N)=O)C(=O)N[C@H]2C(=O)N[C@H]3C(=O)N[C@H](C(=O)N[C@H](C(=O)O)c4cc(O)cc(O)c4-c4cc3ccc4O)[C@H](O)c3ccc(c(Cl)c3)Oc3cc2cc(c3O[C@@H]2O[C@H](CO)[C@@H](O)[C@H](O)[C@H]2O[C@H]2C[C@](C)(N)[C@H](O)[C@H](C)O2)Oc2ccc(cc2Cl)[C@H]1O` [vancomycin, reference compound], the MIC in the experiment on B. cereus ATCC10987 is 6 ± 2 µM (≈ 8.7 µg/mL); in the experiment on E. faecalis V583, 9.8 ± 2.7 µM (≈ 14.2 µg/mL); in the experiment on E. faecium LMG16003, > 32 µM; in the experiment on S.aureus LMG8224, 10.7 ± 2.7 µM (≈ 15.5 µg/mL); with C. difficile CECT531, 1.25 ± 0.75 µM (≈ 1.81 µg/mL); in the experiment with C. perfringens CECT376, 0.18 ± 0.06 µM (≈ 0.261 µg/mL).

As to 3-butyl resveratrol [compound 9], the “Minimal Inhibition Concentration (MIC) B. cereus ATCC10987” value in the experiment on B. cereus ATCC10987 worked out at 32 ± 0 µM. Further, the “Minimal Inhibition Concentration (MIC) B. cereus ATCC14579” value in the experiment with B. cereus ATCC14579 turned out to be 32 ± 0 µM. Besides, the “Minimal Inhibition Concentration (MIC) E. faecalis LMG08222” value in the experiment on E. faecalis LMG08222 came out at 128 ± 0 µM. Besides, the “Minimal Inhibition Concentration (MIC) E. faecalis LMG16216” value in the experiment with E. faecalis LMG16216 came out at 128 ± 0 µM. For the same molecule, the “Minimal Inhibition Concentration (MIC) E. faecalis V583” value with E. faecalis V583 came out at 128 ± 0 µM. Moreover, the “Minimal Inhibition Concentration (MIC) E. faecium LMG11423” value with E. faecium LMG11423 was 64 ± 0 µM. In the experiment with E. faecium LMG16003, the “Minimal Inhibition Concentration (MIC) E. faecium LMG16003” value was 128 ± 0 µM. Also, the “Minimal Inhibition Concentration (MIC) S.aureus LMG8224” value in the experiment on S.aureus LMG8224 worked out at 64 ± 0 µM. In addition, the “Minimal Inhibition Concentration (MIC) S.aureus LMG10147” value in the experiment with S.aureus LMG10147 came out at 64 ± 0 µM. Besides, the “Minimal Inhibition Concentration (MIC) S.aureus LMG15975” value with S.aureus LMG15975 amounted to 32 ± 0 µM. In addition, the “Minimal Inhibition Concentration (MIC) C. beijerinckii B504” value in the experiment on C. beijerinckii B504 (setting [2]) was found to be 26.6 ± 5.3 µM. Besides, the “Minimal Inhibition Concentration (MIC) C. ihumii AP5” value with C. ihumii AP5 (setting [2]) is 64 ± 0 µM. The “Minimal Inhibition Concentration (MIC) C. botulinum CECT551” value in the experiment with C. botulinum CECT551 (setting [3]) stood at 32 ± 0 µM. Moreover, the “Minimal Inhibition Concentration (MIC) C. difficile CECT531” value in the experiment on C. difficile CECT531 is 64 ± 0 µM. The “Minimal Inhibition Concentration (MIC) C. perfringens CECT376” value in the experiment with C. perfringens CECT376 was 64 ± 0 µM. Moreover, the “Minimal Inhibition Concentration (MIC) C. tetani CECT4629” value in the experiment with C. tetani CECT4629 (setting [3]) was 16 ± 0 µM.

For the molecule `CCCCCCCCCCCC(=O)OC[C@H]1O[C@@H](Oc2cc(O)cc(/C=C/c3ccc(O)cc3)c2)[C@H](O)[C@@H](O)[C@@H]1O` [compound 4], the MIC in the experiment with B. cereus ATCC10987 came out at 8 µM (≈ 4.58 µg/mL); in the experiment with B. cereus ATCC14579, 8 µM (≈ 4.58 µg/mL); in the experiment with E. faecalis LMG08222, 32 µM (≈ 18.3 µg/mL); in the experiment with E. faecalis LMG16216, 64 µM (≈ 36.7 µg/mL); in the experiment with E. faecalis V583 it was 53.3 ± 10.6 µM (≈ 30.5 µg/mL); in the experiment with E. faecium LMG11423, 53.3 ± 10.6 µM (≈ 30.5 µg/mL). Also, the MIC in the experiment on E. faecium LMG16003 worked out at 53.3 ± 10.6 µM (≈ 30.5 µg/mL); in the experiment on S.aureus LMG8224, 16 µM (≈ 9.16 µg/mL); in the experiment on S.aureus LMG10147 it was 16 µM (≈ 9.16 µg/mL); with S.aureus LMG15975 it was 16 µM (≈ 9.16 µg/mL); in the experiment with C. beijerinckii B504 (Clostridium beijerinckii, B504, 24 h; read-out: Minimal Inhibition Concentration (MIC) C. beijerinckii B504) it was 16 µM (≈ 9.16 µg/mL); in the experiment with C. ihumii AP5 (24 h; read-out: Minimal Inhibition Concentration (MIC) C. ihumii AP5), 32 µM (≈ 18.3 µg/mL). In addition, the MIC with C. botulinum CECT551 was 8 µM (≈ 4.58 µg/mL); in the experiment with C. difficile CECT531, 128 µM (≈ 73.3 µg/mL); in the experiment on C. perfringens CECT376 it was 32 µM (≈ 18.3 µg/mL); in experiment [1], 8 to 16 µM (≈ 4.58 to 9.16 µg/mL); with E. coli LMG8224, > 128 µM. In the experiment with E. coli LMG8224, the “MIC (μM) L-11 + 4 μM” value worked out at 6.6 ± 1.3 µM.

Take `CC(C)[Si](Oc1cc(/C=C/c2ccc(OS(=O)(=O)O)cc2)cc(OS(=O)(=O)O)c1)(C(C)C)C(C)C` [compound 35, 3,4′-Disulfate-5-triisopropylsilyl resveratrol]: the MIC in the experiment with B. cereus ATCC10987 amounted to 16 µM (≈ 8.72 µg/mL); with B. cereus ATCC14579, 21.3 ± 5.3 µM (≈ 11.6 µg/mL); with E. faecalis LMG08222, 13.3 ± 2.6 µM (≈ 7.24 µg/mL); with E. faecalis LMG16216, 8 µM (≈ 4.36 µg/mL); with E. faecalis V583, 16 µM (≈ 8.72 µg/mL); in the experiment with E. faecium LMG11423, 16 µM (≈ 8.72 µg/mL). For the same molecule, the MIC with E. faecium LMG16003 was found to be 13.3 ± 2.6 µM (≈ 7.24 µg/mL); in the experiment on S.aureus LMG8224 it was 13.3 ± 2.6 µM (≈ 7.24 µg/mL); in the experiment on S.aureus LMG10147 it was 21.3 ± 5.3 µM (≈ 11.6 µg/mL); in the experiment with S.aureus LMG15975 it was 16 µM (≈ 8.72 µg/mL); in the experiment on C. beijerinckii B504 (Clostridium beijerinckii, B504, 24 h, read-out: Minimal Inhibition Concentration (MIC) C. beijerinckii B504), 64 µM (≈ 34.9 µg/mL); in the experiment with C. ihumii AP5 (24 h, read-out: Minimal Inhibition Concentration (MIC) C. ihumii AP5), 64 µM (≈ 34.9 µg/mL). Besides, the MIC was 64 µM (≈ 34.9 µg/mL) in the experiment on C. botulinum CECT551; 32 µM (≈ 17.4 µg/mL) in the experiment on C. difficile CECT531; 64 µM (≈ 34.9 µg/mL) in the experiment with C. perfringens CECT376; 64 µM (≈ 34.9 µg/mL) in the experiment on C. tetani CECT4629 (Clostridium tetani, CECT4629, 24 h, read-out: Minimal Inhibition Concentration (MIC) C. tetani CECT4629); > 128 µM with E. coli LMG8224. The “MIC (μM) L-11 + 4 μM” value in the experiment with E. coli LMG8224 came out at 21.6 ± 5.3 µM.
